Read-outs that look alike come from different tables or passages of the source.
How the values were obtained:
[1] = tested on: 3T3 cell line; assay: Cell proliferation assay (CellTiter 96 AQueous One) as indicator of toxicity, 3T3; format: cell-based; details: 3T3, 100 μM
Protocol: A simple cell proliferation assay was used to determine the in vitro cytotoxicity of “compound 1.” Selected cell lines were cultured according to their specific requirements. The optimal cell density required for each cell line was determined. All compounds were tested at a single concentration in triplicate. Cell viability was determined using the CellTiter 96® AQueous One reagent from Promega Corporation.
Assays are performed by adding the test compound to the cells in culture and incubating the cells for a fixed period. The number of viable cells remaining after the incubation period is determined by adding a small amount of the CellTiter 96® AQueous One Solution Reagent directly to culture wells, incubating for 1-4 hours and then recording absorbance at 490 nm with a 96 well plate reader.
Controls in the assay include untreated cells, wells without cells and cells treated with know cytotoxic agents. Data is presented as % inhibition of cell proliferation.

[2] = Solubility of salts of compound 1; format: physicochemical; details: Water, overnight; listed as Free Base (Compound 1)
[3] = In vivo pharmacokinetic evaluation after i.v. and p.o. administration to rats; parameters: species or system rat; details: for clearance: read-out: Cltotal (total plasma clearance); for Vd: read-out: VdB (volume of distribution during the elimination phase); for bioavailability: calculated using AUC0-480, read-out: BA (oral bioavailability)
Protocol: Intravenous infusion of “compound 1” (2 mg/Kg) over 5 minutes to two rats and arterial blood sampled up to 24 hours.
Oral administration of “compound 1” (25 mg/Kg as HPMC suspension) via oral gavage to two rats and arterial blood sampled up to 24 hours.
Plasma concentrations of “compound 1” determined by MS (LOQ<0.01 μM)
CLtotal=total plasma clearance after IV administration Vdβ=volume of distribution during the elimination phase after IV administration BA=oral bioavailability AUCIV=area under the plasma concentration versus time profile from time zero to infinity after IV administration AUCoral=area under the plasma concentration versus time profile from time zero to infinity after oral administration β=terminal elimination rate constant after IV administration

[4] = target: T1, SSTR-1 (Homo sapiens, UniProt P30872); assay: Radioligand binding screen against somatostatin subtype SSTR-1; details: concentration required to displace 50% of the competitive radioligand; read-out: IC50 SSTR1
T1 construct: expressed in transfected cells
T1 sequence (P30872 whole entry, species assumed): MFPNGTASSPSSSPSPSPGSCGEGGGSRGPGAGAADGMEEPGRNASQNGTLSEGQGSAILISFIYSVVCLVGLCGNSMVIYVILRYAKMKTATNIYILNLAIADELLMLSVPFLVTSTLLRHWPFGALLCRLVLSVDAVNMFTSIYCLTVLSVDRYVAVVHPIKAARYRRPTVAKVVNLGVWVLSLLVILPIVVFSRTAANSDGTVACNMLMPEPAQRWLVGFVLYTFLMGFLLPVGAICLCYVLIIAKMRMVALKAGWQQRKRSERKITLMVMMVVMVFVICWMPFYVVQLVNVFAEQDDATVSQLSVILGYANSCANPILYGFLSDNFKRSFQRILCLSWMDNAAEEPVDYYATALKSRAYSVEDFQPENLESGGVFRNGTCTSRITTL
Protocol: (§1) Receptor membrane preparations containing the desired cloned receptor (for example cloned human somatostatin receptor subtype 5, SSTR5) and radio-labeled ligand (for example 3-[^125I]iodotyrosyl^11 Somatostatin-14)) were diluted at the concentration required for testing and according to the specific parameters associated with the selected receptor-ligand combination, including receptor Bmax, ligand Kd and any other parameters necessary to optimize the experimental conditions. When tested for competition activity to the reference ligand, “compound 1” was mixed with membrane suspension and the radiolabeled reference ligand (with or without an excess of cold ligand to the receptor for determination of non-specific binding) and incubated at the temperature required by internal standard operating procedures. Following incubation, the binding reaction was stopped by the addition of ice-cold washing buffer and filtered on appropriate filters, which are then counted. Data analysis and curve-fitting was performed with XLfit (IDBS).
(§2) 10 mM solutions of test compounds in 100% DMSO were prepared. ˜160 μl was used for each dilution (20 μl/well in triplicate).
(§3) A 1.25 mM assay stock was prepared by making a 1:8 dilution of the 10 mM solution. (To 30 μL of the 10 mM solution was added 210 μL milli-Q H2O. A 1:5 dilution series in milli-Q H2O was then prepared.
(§4) In primary screening experiments compounds were tested in duplicate for a particular concentration.

[5] = tested on: HUVEC tube formation; assay: Matrigel tube formation assay; format: cell-based, human; details: Homo sapiens, 22 h
Protocol: HUVEC (Clonetics) were plated in 96 well plates in EGM-2 media (Clonetics) at 2.5 to 3×10^4 cells per well. Cells of less than 6 passages were used in all studies. Wells were precoated with 50 μL growth factor containing Matrigel (Becton Dickinson). HUVEC were allowed to form tubes by incubation at 37° C. in 5% CO2 for 22 hrs. In test wells compound was added in the desired concentration. Photographic images of the wells ×4 magnification were used to determine size of the tubes, length of tubes and number of junctions using image analysis software.

[6] = target: T2, SSTR-4 (Homo sapiens, UniProt P31391); assay: Radioligand binding screen against somatostatin subtype SSTR-4 (SST4 assay); details: concentration required to displace 50% of the competitive radioligand; read-out: IC50 SSTR4
T2 construct: expressed in transfected cells
T2 sequence (P31391 whole entry): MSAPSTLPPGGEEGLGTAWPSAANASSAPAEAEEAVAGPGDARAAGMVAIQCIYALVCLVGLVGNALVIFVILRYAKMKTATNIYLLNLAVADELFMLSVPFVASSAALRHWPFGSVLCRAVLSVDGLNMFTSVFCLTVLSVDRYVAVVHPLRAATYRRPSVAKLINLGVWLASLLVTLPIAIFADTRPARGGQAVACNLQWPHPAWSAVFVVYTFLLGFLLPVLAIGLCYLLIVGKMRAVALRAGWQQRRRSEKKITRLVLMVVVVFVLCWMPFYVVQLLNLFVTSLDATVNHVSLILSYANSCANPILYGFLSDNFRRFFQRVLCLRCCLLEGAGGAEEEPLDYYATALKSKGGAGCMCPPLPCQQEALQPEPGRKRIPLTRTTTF
Protocol: as §1, §2, §3
Assays were performed in triplicate at each concentration within the 1:5 dilution series: 250 μM, 50 μM, 10 μM, […], 0.4 μM, 0.08 μM, 0.016 μM, 0.0032 μM, etc. (for SST4 assay) and 125 μM, 10 μM, 2 μM, 1 μM, 0.5 μM, etc (for SST5 assay).
as §4

[7] = target: T3, Human SST5 somatostatin receptor (SSTR5) (Homo sapiens, UniProt P35346); assay: Filter plate assay for SST5 receptor, displacement of [125I]SST-14; format: binding
T3 construct: expressed in transfected cells; host or cells: HEK-293 EBNA
T3 sequence (P35346 whole entry): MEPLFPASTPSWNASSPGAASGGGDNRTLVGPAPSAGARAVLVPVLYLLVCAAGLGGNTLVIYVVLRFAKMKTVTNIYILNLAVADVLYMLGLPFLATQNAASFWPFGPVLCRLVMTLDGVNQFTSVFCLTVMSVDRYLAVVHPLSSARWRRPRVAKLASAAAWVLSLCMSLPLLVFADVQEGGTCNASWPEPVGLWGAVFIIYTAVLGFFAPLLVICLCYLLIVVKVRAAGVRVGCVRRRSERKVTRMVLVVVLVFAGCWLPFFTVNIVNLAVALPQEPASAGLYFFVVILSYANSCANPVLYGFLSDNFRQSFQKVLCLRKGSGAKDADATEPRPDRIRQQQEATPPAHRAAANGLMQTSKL
Procedure, shortened: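 HEK-293 EBNA membranes expressing human SST5 (5.5 μg) incubated 60 min at 25 °C with 4 nM [125I]SST-14 and compound in pH 7.5 Tris/EGTA/MgCl2/sucrose buffer. Bound radioactivity collected on PEI-coated glass fiber filters and counted; triplicate 1:5 dilution series from 125 μM, non-specific binding with excess cold ligand.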

[8] = rat, plasma, iv, 2 mg/Kg, IV, Mean ± SD of two rats
[9] = rat, plasma, iv, 2 mg/Kg, Rat 1, IV
[10] = rat, plasma, iv, 2 mg/Kg, Rat 2, IV

## COC[C@H]1O[C@H](OCCc2ccccc2)[C@H](NC(=O)CCCN)[C@@H](OCc2ccc3ccccc3c2)[C@@H]1O [Compound 1]
[1]
  Inhibition of cell proliferation: no inhibitory effect
[2]
  Solubility in Water: >0.2 mg/mL
[3]; IV, Mean ± SD of two rats
  VdB (volume of distribution during the elimination phase): 3.29 ± 0.56 L/kg
[3]; Rat 4, PO 25 mg/Kg
  Tmax: 20 min
[3]; plasma, Rat 3, PO 25 mg/Kg, read-out: Tmax (converted)
  Tmax: 20 min
[3]; rat, plasma, 25 mg/Kg, PO, mean of two rats, read-out: Tmax (converted)
  Tmax: 20 min
[3]; [8]
  clearance: 8.2 mL/min/kg
  Vd: 3.3 L/kg
[3]; rat, plasma, iv, 2 mg/Kg, IV, Mean ± SD of two rats, read-out: t1/2 (elimination half-life) (converted)
  half-life: ~276 min
[3]; rat, plasma, iv, 2 mg/Kg, Mean ± SD of two rats
  Cmax: 31.9 ± 2.27 µM
[3]; rat, plasma, iv, 2 mg/Kg, Rat 1, IV infusion 2 mg/Kg over 5 minutes
  Cmax: 30.3 µM
[3]; [9]
  clearance: 7.53 mL/min/kg
  Vd: 2.9 L/kg
[3]; rat, plasma, iv, 2 mg/Kg, Rat 1, IV, read-out: t1/2 (converted)
  half-life: 267 min
[3]; rat, plasma, iv, 2 mg/Kg, Rat 2, IV infusion 2 mg/Kg over 5 minutes
  Cmax: 33.5 µM
[3]; [10]
  clearance: 8.86 mL/min/kg
  Vd: 3.69 L/kg
[3]; rat, plasma, iv, 2 mg/Kg, Rat 2, IV, read-out: t1/2 (converted)
  half-life: 286 min
[3]; rat, plasma, po, 25 mg/Kg, Mean ± SD of two rats
  Cmax: 4.95 ± 2.84 µM
[3]; rat, plasma, po, 25 mg/Kg, PO, Mean ± SD of two rats
  bioavailability: ~5.2%
[3]; rat, plasma, po, 25 mg/Kg, Rat 4, PO
  bioavailability: 5.38%
[3]; rat, plasma, po, 25 mg/kg, Rat 3, PO 25 mg/Kg HPMC suspension
  Cmax: 6.95 µM
[3]; rat, plasma, po, 25 mg/kg, Rat 4, PO 25 mg/Kg HPMC suspension
  Cmax: 2.94 µM
[4]
  IC50: > 12.5 µM
[5]
  EC50: 250 µM
[6]
  IC50: > 12.5 µM
[7]; concentration required to displace 50% of the competitive radioligand, read-out: IC50 SSTR5
  IC50: 322 nM
[7]; normalized IC50: lowest IC50 for a compound = 1
  selectivity SSTR5: 1
[7]; slope of binding curve
  Hillslope SSTR5: 0.71

Reference: patent publication US20080280837A1, “Biologically Active Compounds with Anti-Angiogenic Properties” (priority 2004, published 2008)
